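Results reflect a 48-hour exposure of cells in 96-well plates to compound at five concentrations. Here, GI50 denotes the concentration required for 50% inhibition of growth.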 Calls of active or inactive are those of the source. No stated cut-off is given here; in the data, active = GI50 up to about 1.1 µM and inactive = higher.

The source of these data is ChEMBL document CHEMBL1201862, “PubChem BioAssay data set” (2004).

Some test systems named below: 786-0; A549; CCRF-CEM; DU-145; HCT-116; HOP-92; Hs-578T; IGROV-1; M14; MDA-MB-435; MOLT-4; OVCAR-3; OVCAR-8; PC-3; SF-268; SK-MEL-5; SNB-75; T47D; TK-10; UO-31.
What all share (experiment): DTP human tumour cell line panel, 48 h

A word on the GI50: it is the concentration at which growth is held to half of that of the control. For the compound `COc1cc(S(=O)(=O)Nc2nc(-c3ccc(N4C(=O)CSC4c4cccs4)cc3)cs2)ccc1Cl` (stereo not drawn), the GI50 with 786-0 is 81.1 µM (inactive); in the experiment on A549 it was > 100 µM (inactive); with CCRF-CEM, 17.9 µM (inactive); in the experiment on DU-145 it was > 100 µM (inactive); with HCT-116, 45.2 µM (inactive); in the experiment on HOP-92 it was 36.6 µM (inactive). Further, the GI50 was 97.1 µM (inactive) in the experiment with Hs-578T; 34.3 µM (inactive) in the experiment with IGROV-1; > 100 µM (inactive) in the experiment on M14; > 100 µM (inactive) in the experiment with MDA-MB-435; 22.1 µM (inactive) in the experiment on MOLT-4; 33.7 µM (inactive) in the experiment on OVCAR-3. The GI50 with OVCAR-8 was 33 µM (inactive); in the experiment with PC-3, 88.3 µM (inactive); in the experiment with SF-268, 37.6 µM (inactive); in the experiment on SK-MEL-5 it was > 100 µM (inactive); in the experiment with SNB-75, > 100 µM (inactive); with T47D it was 36.8 µM (inactive). Besides, the GI50 in the experiment with TK-10 was > 100 µM (inactive); with UO-31 it was 22.6 µM (inactive).

In the case of `C[N+]1(CCC(=O)c2ccccc2)CCC2CCC(C2)C1` (stereo not drawn), the GI50 in the experiment with 786-0, in the experiment on A549, in the experiment on CCRF-CEM, in the experiment with DU-145, in the experiment on HCT-116 and in the experiment with HOP-92 was > 100 µM (inactive) each time. Also, the GI50 in the experiment on Hs-578T, in the experiment on IGROV-1, in the experiment with M14, in the experiment with MDA-MB-435, in the experiment with MOLT-4 and in the experiment with OVCAR-3 was > 100 µM (inactive) each time. The GI50 in the experiment with OVCAR-8, with PC-3, in the experiment with SF-268, with SK-MEL-5, with SNB-75 and with T47D was > 100 µM (inactive) in each case. Moreover, the GI50 in the experiment on TK-10 and in the experiment with UO-31 was > 100 µM (inactive) throughout.

As to `N=C(N)N/N=C/c1c(-c2ccc(Cl)cc2)nc2sc(Cl)cn12`, the GI50 in the experiment on 786-0 is 1.58 µM (inactive); with A549, 1.7 µM (inactive); in the experiment with DU-145, 1.95 µM (inactive); in the experiment with HCT-116 it was 0.43 µM (active); in the experiment with HOP-92 it was 1.69 µM (inactive); in the experiment on Hs-578T it was 1.85 µM (inactive). The GI50 in the experiment with IGROV-1 is 0.755 µM (active); in the experiment on M14, 1.9 µM (inactive); in the experiment on MDA-MB-435, 1.3 µM (inactive); in the experiment on MOLT-4, 0.504 µM (active); with OVCAR-3, 1.55 µM (inactive); in the experiment on OVCAR-8, 1.27 µM (inactive). The GI50 is 3 µM (inactive) in the experiment on PC-3; 1.7 µM (inactive) with SF-268; 1.62 µM (inactive) with SK-MEL-5; 1.41 µM (inactive) with SNB-75; 1.12 µM (inactive) in the experiment with T47D; 1.72 µM (inactive) in the experiment on TK-10. The GI50 in the experiment on UO-31 was 1.68 µM (inactive).

With `COc1ccc(OC/C(N)=N/NC(=O)c2ccncc2)cc1`, the GI50 with 786-0, in the experiment with A549, in the experiment on CCRF-CEM, in the experiment on DU-145, with HCT-116 and in the experiment on HOP-92 was > 100 µM (inactive) in each case. Moreover, the GI50 with Hs-578T, with IGROV-1, with M14, with MDA-MB-435, in the experiment on MOLT-4 and in the experiment on OVCAR-3 was > 100 µM (inactive) each time. Besides, the GI50 with OVCAR-8 was > 100 µM (inactive); with PC-3, > 100 µM (inactive); with SF-268 it was > 100 µM (inactive); in the experiment on SNB-75 it was 8.22 µM (inactive); in the experiment with T47D, > 100 µM (inactive); with TK-10 it was > 100 µM (inactive).

On to `Nc1nc(Nc2cc(F)c(Cl)c(F)c2)cc(=O)[nH]1`, for which the GI50 with 786-0 is 76.4 µM (inactive); in the experiment with A549, 76.4 µM (inactive); in the experiment on CCRF-CEM, 66.8 µM (inactive); with DU-145, > 100 µM (inactive); in the experiment on HCT-116, 74.3 µM (inactive); with HOP-92 it was 77.3 µM (inactive). In addition, the GI50 with Hs-578T is 18.1 µM (inactive); in the experiment on IGROV-1, > 100 µM (inactive); in the experiment with M14, 41.5 µM (inactive); in the experiment on MDA-MB-435, 44.4 µM (inactive); in the experiment on MOLT-4, 55.6 µM (inactive); with OVCAR-3, > 100 µM (inactive). Besides, the GI50 was > 100 µM (inactive) with OVCAR-8; > 100 µM (inactive) in the experiment on PC-3; 74.5 µM (inactive) with SF-268; 53.5 µM (inactive) in the experiment on SK-MEL-5; 30.7 µM (inactive) in the experiment on SNB-75; 77.6 µM (inactive) in the experiment with T47D. The GI50 with TK-10 was > 100 µM (inactive).

For the compound `O=C(NC(CO)Cc1ccc(Oc2cc(CC(CO)NC(=O)OCc3ccccc3)ccc2OC(=O)OCc2ccccc2)cc1)OCc1ccccc1` (stereo not drawn), the GI50 is 25.1 µM (inactive) in the experiment on 786-0; 11.6 µM (inactive) in the experiment on A549; 4.28 µM (inactive) in the experiment with CCRF-CEM; 21 µM (inactive) with DU-145; 16.7 µM (inactive) with HCT-116; 19.5 µM (inactive) with HOP-92. Also, the GI50 with Hs-578T is 5.97 µM (inactive); with IGROV-1, 20.3 µM (inactive); with M14 it was 18.2 µM (inactive); in the experiment on MDA-MB-435, 16.6 µM (inactive); with MOLT-4, 3.32 µM (inactive); in the experiment on OVCAR-3, 19.5 µM (inactive). Moreover, the GI50 with OVCAR-8 is 15.4 µM (inactive); in the experiment with PC-3, 11.4 µM (inactive); in the experiment on SF-268, 23.5 µM (inactive); with SNB-75, 16.5 µM (inactive); in the experiment on T47D it was 5.18 µM (inactive); with TK-10, 20.7 µM (inactive). The GI50 in the experiment with UO-31 is 18.2 µM (inactive).

For the compound `COc1ccc(/C=C2\C[C@H]3[C@@H]4CCC5=CC(=O)CC[C@]5(C)[C@H]4CC[C@]3(C)C2=O)cc1OC`, the GI50 in the experiment with 786-0 was 35.8 µM (inactive); in the experiment on A549, 5.58 µM (inactive); in the experiment with CCRF-CEM it was 2.19 µM (inactive); in the experiment on DU-145, 41.2 µM (inactive); in the experiment on HCT-116 it was 8.05 µM (inactive); in the experiment with HOP-92, 5.27 µM (inactive). In addition, the GI50 is 45.8 µM (inactive) in the experiment on Hs-578T; 10.4 µM (inactive) with IGROV-1; 14.9 µM (inactive) with M14; 5.48 µM (inactive) in the experiment on MDA-MB-435; 3.44 µM (inactive) in the experiment with MOLT-4; 17.5 µM (inactive) in the experiment on OVCAR-3. Further, the GI50 with OVCAR-8 was 2.6 µM (inactive); in the experiment with PC-3, 5.51 µM (inactive); in the experiment on SF-268 it was > 100 µM (inactive); with SK-MEL-5, 2.46 µM (inactive); in the experiment with SNB-75, > 100 µM (inactive); in the experiment with T47D, 3.56 µM (inactive). Further, in the experiment with UO-31, the GI50 was 2.42 µM (inactive).

With `Nc1nc(Nc2ccc(Cl)cc2)sc1C(=O)c1cc2ccccc2oc1=O`, the GI50 with 786-0 is 19.5 µM (inactive); in the experiment on A549, 98.9 µM (inactive); with CCRF-CEM it was 7.38 µM (inactive); with DU-145 it was 74.6 µM (inactive); with HCT-116 it was 23.1 µM (inactive); with HOP-92, 53.2 µM (inactive). In addition, the GI50 in the experiment on Hs-578T was 27.2 µM (inactive); in the experiment with IGROV-1, 56.6 µM (inactive); in the experiment on M14 it was 68.9 µM (inactive); in the experiment on MDA-MB-435, 23.7 µM (inactive); in the experiment with OVCAR-3, 4.84 µM (inactive); in the experiment on PC-3 it was 48.1 µM (inactive). Also, the GI50 in the experiment with SF-268 was 18.3 µM (inactive); in the experiment with SK-MEL-5, 67.6 µM (inactive); in the experiment with SNB-75 it was 7.55 µM (inactive); in the experiment with T47D, 27.7 µM (inactive); with TK-10, > 100 µM (inactive); with UO-31 it was > 100 µM (inactive).

Consider `O=C1C[C@H](c2ccccc2)O[C@@H](c2ccccc2)C1`, for which the GI50 was 88.1 µM (inactive) in the experiment on 786-0; > 100 µM (inactive) in the experiment on A549; > 100 µM (inactive) with CCRF-CEM; > 100 µM (inactive) in the experiment on DU-145; > 100 µM (inactive) in the experiment with HCT-116; > 100 µM (inactive) with HOP-92. The GI50 in the experiment on Hs-578T was > 100 µM (inactive); in the experiment on IGROV-1 it was > 100 µM (inactive); in the experiment with M14, > 100 µM (inactive); with MDA-MB-435 it was > 100 µM (inactive); in the experiment on MOLT-4, 58.1 µM (inactive); in the experiment on OVCAR-3 it was > 100 µM (inactive). For the same compound, the GI50 with OVCAR-8, in the experiment on PC-3, with SF-268, with SK-MEL-5, in the experiment on SNB-75 and in the experiment on T47D was > 100 µM (inactive) throughout. Also, in the experiment on UO-31, the GI50 is > 100 µM (inactive).

In the case of `O=C1NC(c2ccc3ccccc3c2)Nc2ccccc21` (stereo not drawn), the GI50 in the experiment with 786-0 was 45.7 µM (inactive); with CCRF-CEM it was 30.6 µM (inactive); in the experiment with DU-145, 49.5 µM (inactive); with HCT-116 it was 33.1 µM (inactive); in the experiment with HOP-92, 36.7 µM (inactive); in the experiment with Hs-578T, 57.4 µM (inactive). In addition, the GI50 with IGROV-1 is 23.6 µM (inactive); in the experiment with M14 it was 35.9 µM (inactive); in the experiment with MDA-MB-435, 3.12 µM (inactive); in the experiment with OVCAR-8, 33.4 µM (inactive); in the experiment on PC-3, 27.9 µM (inactive); in the experiment with SF-268, > 100 µM (inactive). Further, the GI50 is 20 µM (inactive) in the experiment on SK-MEL-5; 75.7 µM (inactive) with SNB-75; 71.4 µM (inactive) in the experiment on T47D; > 100 µM (inactive) in the experiment on TK-10; 64.9 µM (inactive) in the experiment with UO-31.
